Results as given in patent EP0515684A1, “INHIBITOR OF DENATURED LDL FORMATION” (Chugai Seiyaku Kabushiki Kaisha, priority 1990, dated 1991).

Tested on: rabbit LDL
Assay: Amount of thiobarbituric acid reactive substances (TBARS) formed on Cu2+ oxidation of LDL
Type: biochemical
Settings: 5 µM of Cu²⁺ added to rabbit LDL, followed by heating
Method: The biological properties of the compounds as shown hereinafter were examined by the following methods. • (1) The amount of thiobarbituric acid reactive substances: 5 µM of Cu²⁺ was added to rabbit LDL, prepared by the method reported by Havel et al., followed by heating. Then the antioxidative effect of each compound was examined by using the thiobarbituric acid reactive substances (TBARS) thus formed as the guidance. […] 0.5 ml of an n-butanol solution containing 0.2 µM of MCLA and 10 mM of linoleic acid was introduced into a vial for luminescence analysis and the luminescence due to autoxidation was measured in a thermostat at 37°C. […] To the obtained plasma, were added EDTA-NaN₃ (a 5% solution of pH 7.4) and a benzamidine solution (60 mg/ml) respectively in amounts of 0.8 ml and 0.5 ml per 100 ml of the plasma. Then rabbit or human LDL (1.019 < d < 1.063) was prepared by ultracentrifugation in accordance with the method of Havel et al.*. After performing the ultracentifugation again, the LDL was washed and concentrated. Then it was dialyzed against a 150 mM NaCl - 2 mM Na₂HPO₄ solution at 4°C and KBr was removed. The protein content was determined by Lowry method** and then the LDL was subjected to the subsequent procedure. (Measurement of electrophoretic mobility in agarose gel) 10 µM of Cu²⁺ and a specimen were added to an LDL-containing solution (3.00 µg protein/ml). After incubating at 37°C for approximately 24 hours, a portion (1 µl) thereof was applied onto an agarose gel film (Universal Film, manufactured by Corning Co.) and then subjected to electrophoresis (Agarose Gel Electrophoresis System for Lipoprotein, manufactured by Corning Co.). Thus the mobility was measured by staining lipids with Fat Red 7B. […] After 3 days, peritoneal macrophages were collected from the mouse and incubated in an RPMI 1640 medium containing 10% of FBS. The macrophages were used in the • examination on the next day.

SMILES | Formed TBARS (%) (Compound conc. 10^-5 M, 10 µM) | Formed TBARS (%) (Compound conc. 10^-6 M, 1 µM)
COc1cc(N(C)Cc2ccccc2)cc(OC)c1OC [Compound 2, N-benzyl-N-methyl-3,4,5-trimethoxyaniline] | 31% | 56%
CCN(Cc1ccccc1)c1cc(OC)c(OC)c(OC)c1 [Compound 3, N-benzyl-N-ethyl-3,4,5-trimethoxyaniline] | 35% | 51%
COc1cc(N(CC=C(C)CCC=C(C)C)Cc2ccccc2)cc(OC)c1OC [Compound 8] | 31% | 55%
COc1cc(N(CC=C(C)CCCC(C)CCCC(C)CCCC(C)C)Cc2ccccc2)cc(OC)c1OC (stereo not shown) [Compound 9] | 57% | 78%
COc1cc(NCc2ccc(C)c(C)c2)cc(OC)c1OC [Compound 10] | 9% | 25%
COc1cc(NCc2ccc(Br)cc2)cc(OC)c1OC [Compound 26] | 12% | 27%
COc1cc(NCc2cccc(Br)c2)cc(OC)c1OC [Compound 27] | 12% | 29%
COc1cc(NCc2ccccc2Br)cc(OC)c1OC [Compound 28] | 13% | 30%
COc1cc(NCc2c(F)c(F)c(F)c(F)c2F)cc(OC)c1OC [Compound 29] | 20% | 39%
COc1cc(N(CCCc2ccccc2)Cc2c(F)c(F)c(F)c(F)c2F)cc(OC)c1OC [Compound 30] | 26% | 57%
COc1cc(CNc2cc(OC)c(OC)c(OC)c2)cc(OC)c1OC [Compound 35] | 28% | 52%
CCCCCCOc1ccc(CNc2cc(OC)c(OC)c(OC)c2)cc1 [Compound 41] | 16% | 63%
CCCCCCCCOc1ccc(CNc2cc(OC)c(OC)c(OC)c2)cc1 [Compound 42] | 19% | 72%
CCCCCCCCCCCCOc1ccc(CNc2cc(OC)c(OC)c(OC)c2)cc1OCCCCCCCCCCCC [Compound 43] | 62% | 94%
COc1cc(NCc2ccccc2OCCC(C)CCCC(C)C)cc(OC)c1OC (stereo not shown) [Compound 45] | 15% | 80%
COc1cc(NCc2ccccc2OC/C=C(\C)CCC=C(C)C)cc(OC)c1OC [Compound 46] | 13% | 69%
COc1cc(NCc2ccc(OC/C=C(\C)CCC=C(C)C)cc2)cc(OC)c1OC [Compound 47] | 17% | 76%
COc1cc(NCc2ccc(OC/C=C(\C)CCCC(C)CCCC(C)CCCC(C)C)cc2)cc(OC)c1OC (stereo not shown) [Compound 48] | 40% | 90%
COc1cc(NCc2ccc(OC/C=C(\C)CC/C=C(\C)CCC=C(C)C)cc2)cc(OC)c1OC [Compound 49] | 39% | 78%
COc1cc(NCc2ccccc2SCCC(C)CCCC(C)C)cc(OC)c1OC (stereo not shown) [Compound 50] | 17% | 70%
COc1cc(NCc2cccc(Oc3ccccc3)c2)cc(OC)c1OC [Compound 51] | 16% | 32%
COc1cc(NCc2ccc(Oc3ccccc3)cc2)cc(OC)c1OC [Compound 52] | 13% | 43%
CCOC(=O)CCCCCCOc1ccc(CNc2cc(OC)c(OC)c(OC)c2)cc1 [Compound 53] | 13% | 38%
COc1cc(NCc2ccc(OCCCCCCC(=O)O)cc2)cc(OC)c1OC [Compound 54] | 16% | 46%
CCOC(=O)C(C)(C)Oc1ccc(CNc2cc(OC)c(OC)c(OC)c2)cc1 [Compound 55] | 20% | 46%

SMILES | Formed TBARS (%) (Compound conc. 10^-5 M, 10 µM) | Formed TBARS (%) (Compound conc. 10^-6 M, 1 µM)
COc1cc(NCc2ccc(OC(C)(C)C(=O)O)cc2)cc(OC)c1OC [Compound 56] | 59% | 77%
COc1cc(NCc2ccc(CNc3cc(OC)c(OC)c(OC)c3)cc2)cc(OC)c1OC [Compound 57] | 12% | 34%
COC(=O)c1ccc(CNc2cc(OC)c(OC)c(OC)c2)cc1 [Compound 60] | 17% | 46%
COc1cc(NCc2ccc([N+](=O)[O-])cc2)cc(OC)c1OC [Compound 64] | 17% | 38%
COc1cc(NCc2ccc(CO)cc2)cc(OC)c1OC [Compound 67] | 35% | 55%
COc1cc(NCCc2ccccc2)cc(OC)c1OC [Compound 69] | 18% | 36%
COc1cc(NCCCc2ccccc2)cc(OC)c1OC [Compound 70] | 18% | 25%
COc1cc(NCCCCc2ccccc2)cc(OC)c1OC [Compound 71] | 7% | 20%
COc1cc(NCCCc2ccc(CO)cc2)cc(OC)c1OC [Compound 75] | 16% | 38%
CCCCC(Nc1cc(OC)c(OC)c(OC)c1)c1ccccc1 (stereo not shown) [Compound 77, N-(1-phenylpentyl)-3,4,5-trimethoxyaniline] | 17% | 31%
CCCCCCC(Nc1cc(OC)c(OC)c(OC)c1)c1ccccc1 (stereo not shown) [Compound 78] | 14% | 29%
CCCCCCCCC(Nc1cc(OC)c(OC)c(OC)c1)c1ccccc1 (stereo not shown) [Compound 79] | 19% | 46%
C=CCC(Nc1cc(OC)c(OC)c(OC)c1)c1ccccc1 (stereo not shown) [Compound 80] | 17% | 33%
COc1cc(NC(CC(C)C)c2ccccc2)cc(OC)c1OC (stereo not shown) [Compound 81] | 15% | 25%
COc1cc(NC(c2ccccc2)c2ccccc2)cc(OC)c1OC [Compound 82] | 15% | 34%
COc1cc(NC(CCc2ccccc2)C(C)C)cc(OC)c1OC (stereo not shown) [Compound 83] | 15% | 28%
COc1cc(NCC=Cc2ccccc2)cc(OC)c1OC [Compound 85] | 20% | 64%
COc1cc(N(CC=Cc2ccccc2)CC=Cc2ccccc2)cc(OC)c1OC [Compound 86] | 27% | 52%
COc1cc(NC2CCCc3ccccc32)cc(OC)c1OC (stereo not shown) [Compound 90] | 9% | 26%
COc1cc(NCc2ccc[nH]2)cc(OC)c1OC [Compound 94] | 63% | 87%
COc1cc(NCc2ccco2)cc(OC)c1OC [Compound 95] | 29% | 66%
C=CCN(Cc1ccco1)c1cc(OC)c(OC)c(OC)c1 [Compound 96] | 43% | 67%
COc1cc(NCc2cccs2)cc(OC)c1OC [Compound 97] | 24% | 44%
COc1cc(NCc2ccccn2)cc(OC)c1OC [Compound 98] | 43% | 79%
COc1cc(NCc2cccnc2)cc(OC)c1OC [Compound 99] | 47% | 79%
